Source: patent publication US10301288B2, “Kinase inhibitors” (Topivert Pharma Limited, priority 2013, dated 2019)
Like-named read-outs stand apart in the source and are kept apart here.

Experiments:
[1] = Hepatic microsomal stability, Cynomolgus macaque; assay type: in vitro ADME; details: pooled liver microsomes, read-out: Mean intrinsic clearance
Protocol: (§1) • Microsomal stability assays were performed with incubations of test compounds at 0.1 μM (n=2, final DMSO concentration 0.25%), and carried out using pooled human, […], rat and Cynomolgus macaque hepatic microsomes from Xenotech (Lots 1210153, 0810143 and 1110042, respectively) at 0.25 mg protein/mL in the presence of cofactor, NADPH. The incubations were performed at 37° C. with 100 μL aliquots taken from the incubation, at 0, 2, 5, 10 and 20 minutes (and, in the case of Cynomolgus macaque hepatic microsomes, 40 minutes) and reactions terminated by addition of 100 μL of acetonitrile containing carbamazepine as analytical internal standard. […] Half-life values were calculated from the relationship T1/2 (min)=−0.693/λ • where λ was the slope of the Ln concentration vs time curve. • The in vitro intrinsic clearance, Clint (mL/min/kg), was calculated and scaled to hepatic extraction ratios using the following scaling parameters and formulae.
(§2) Formulae Clint(tissue clearance) mL/min/kg=[0.693/t½ (min)]×[1/microsomal protein concentration mg/mL]×[mg microsomes/g liver]×[g liver/kg body weight] […] Half-life values were calculated from the relationship T1/2 (min)=−0.693/λ • where λ was the slope of the Ln concentration vs time curve. • Standard compounds testosterone, midazolam and 4-methylumbelliferone are included in the assay design.

CYP2C9 = CYP2C9 (Homo sapiens (Human), UniProt P11712); test: CYP450 time-dependent inhibition, CYP2C9; assay type: in vitro ADME
CYP2C9, sequence (P11712 whole entry): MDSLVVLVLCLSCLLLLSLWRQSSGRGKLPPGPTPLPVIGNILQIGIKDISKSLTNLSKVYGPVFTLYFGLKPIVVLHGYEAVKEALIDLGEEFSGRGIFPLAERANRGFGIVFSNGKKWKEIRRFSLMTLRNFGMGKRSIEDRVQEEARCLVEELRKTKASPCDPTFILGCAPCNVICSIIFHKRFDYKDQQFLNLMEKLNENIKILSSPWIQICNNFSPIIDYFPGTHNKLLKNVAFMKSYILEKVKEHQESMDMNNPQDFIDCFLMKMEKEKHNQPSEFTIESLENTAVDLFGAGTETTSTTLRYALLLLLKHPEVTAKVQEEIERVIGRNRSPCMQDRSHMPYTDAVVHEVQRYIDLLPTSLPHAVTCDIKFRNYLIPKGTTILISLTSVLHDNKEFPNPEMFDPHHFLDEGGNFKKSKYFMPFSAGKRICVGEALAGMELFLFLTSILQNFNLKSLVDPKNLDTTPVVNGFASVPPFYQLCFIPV
Protocol: CYP450 time-dependent inhibition (TDI) assays were performed with test compound at six test concentrations, 0.062 μM to 15 μM (n=2). The test compounds was pre-incubated for 30 minutes with pooled human hepatic microsomes in 0.1 M Tris buffer, pH 7.4, at 37° C. in the presence of cofactor NADPH. A parallel series of incubations (n=2) were prepared with no pre-incubation. Probe substrates were then added (with additional cofactor) and further incubated for the times specified. Concentrations of probe substrates used in the incubations have been optimised to maintain first order reaction conditions.
Reactions were terminated with acetonitrile containing analytical internal standard (carbamazepine), samples then centrifuged to remove microsomal protein and analysed using optimised LC/MS-MS conditions. The MS data were normalised to internal standard and compared to the appropriate solvent controls to determine the amount of metabolite formed from the probe substrate relative to the “uninhibited” controls. The results are quoted as % inhibition.
Variation in probe turnover between plate wells means that inhibition values recorded below 10-15% may not be significant.

[2] = Pharmacokinetics and colon distribution in mice; assay type: in vivo, male C57BL/6 mice; details: male, 5 mg/kg p.o.; for concentration at 1 h / concentration at 2 h / concentration at 4 h / concentration at 6 h / concentration at 8 h / concentration at 12 h / concentration at 24 h: po, mouse
Protocol: Blood samples (approximately 60 μL) were collected from retro orbital plexus such that the samples were obtained at 1, 2, 4, 6, 8, 12 and 24 hr. The blood samples were collected from a set of three mice at each time point in labelled micro centrifuge tube containing K2EDTA as anticoagulant. Plasma samples were separated by centrifugation at 4000 rpm for 10 min of whole blood and stored below −70° C. until bioanalysis. After collection of blood sample, animals were humanely euthanized by carbon dioxide asphyxiation to collect total colon tissues. The colons were flushed with cold phosphate buffer saline (pH 7.4) to remove contents. The total colon tissues were homogenized with cold phosphate buffer saline (pH 7.4) of twice the weight of colon tissue and stored below −70° C. Total volume was three times the total colon tissue weights. All samples were processed for analysis by protein precipitation using acetonitrile and analyzed with developed LC-MS/MS method (LLOQ: 2.02 ng/mL in plasma and 1.01 ng/mL in colon tissue). Pharmacokinetic parameters were calculated using the non-compartmental analysis tool of Phoenix WinNonlin® software (version 6.3).

hERG = hERG (Homo sapiens (Human), UniProt Q12809); test: hERG inhibition, IonWorks patch clamp; assay type: cell-based
hERG, sequence (Q12809 whole entry): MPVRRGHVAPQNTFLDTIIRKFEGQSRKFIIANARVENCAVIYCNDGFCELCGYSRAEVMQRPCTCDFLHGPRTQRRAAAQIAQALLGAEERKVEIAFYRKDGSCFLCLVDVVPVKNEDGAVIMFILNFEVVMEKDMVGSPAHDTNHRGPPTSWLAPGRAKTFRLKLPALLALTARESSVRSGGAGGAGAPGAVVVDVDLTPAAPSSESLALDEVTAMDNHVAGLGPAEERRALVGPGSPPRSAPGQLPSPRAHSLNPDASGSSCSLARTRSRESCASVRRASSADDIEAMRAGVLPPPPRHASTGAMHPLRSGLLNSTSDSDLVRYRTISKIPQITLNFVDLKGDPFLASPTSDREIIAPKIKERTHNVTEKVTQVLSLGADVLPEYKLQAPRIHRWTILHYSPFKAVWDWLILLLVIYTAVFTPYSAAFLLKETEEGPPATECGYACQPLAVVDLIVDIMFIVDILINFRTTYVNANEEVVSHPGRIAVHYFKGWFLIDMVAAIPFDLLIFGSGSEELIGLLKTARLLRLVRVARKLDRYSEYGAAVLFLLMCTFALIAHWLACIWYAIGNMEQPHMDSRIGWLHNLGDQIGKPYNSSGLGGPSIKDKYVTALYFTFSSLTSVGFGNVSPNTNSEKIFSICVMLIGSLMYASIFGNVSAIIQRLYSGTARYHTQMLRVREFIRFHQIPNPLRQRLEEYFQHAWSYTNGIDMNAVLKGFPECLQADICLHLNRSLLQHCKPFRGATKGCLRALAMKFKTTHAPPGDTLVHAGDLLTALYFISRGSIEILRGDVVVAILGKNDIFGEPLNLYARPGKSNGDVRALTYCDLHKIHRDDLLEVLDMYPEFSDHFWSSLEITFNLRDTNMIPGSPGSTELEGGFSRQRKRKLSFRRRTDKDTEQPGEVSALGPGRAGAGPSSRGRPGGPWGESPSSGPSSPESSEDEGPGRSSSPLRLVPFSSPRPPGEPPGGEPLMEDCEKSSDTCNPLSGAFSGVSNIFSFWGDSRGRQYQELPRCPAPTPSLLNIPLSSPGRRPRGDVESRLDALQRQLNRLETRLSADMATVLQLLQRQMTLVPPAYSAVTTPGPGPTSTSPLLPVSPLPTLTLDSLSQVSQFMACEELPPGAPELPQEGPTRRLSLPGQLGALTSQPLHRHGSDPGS
Protocol: Eight-point concentration curves were generated using serial 3-fold dilutions from the maximum final assay concentration (3 μM). Electrophysiological recordings were made from a Chinese Hamster Lung cell line stably expressing the full length hERG channel Single cell ionic currents were measured in the perforated patch clamp configuration (100 μg/mL) amphotericin) at room temperature (21-23° C.) using an IonWorks Quattro instrument. The internal solution contained (mM): 140 KCl, 1 MgCl2, 1 EGTA, 20 HEPES and was buffered to pH 7.3. The external solution contained (mM):138 NaCl, 2.7 KCl, 0.9 CaCl2, 0.5 MgCl2, 8 Na2HPO4, 1.5 KH2PO4, also buffered to pH 7.3. Cells were clamped at a holding potential of −70 mV for 30 s and then stepped to +40 mV for 1 s. This was followed by a hyperpolarising step of 1 s to −30 mV to evoke the hERG tail current. This sequence was repeated 5 times at a frequency of 0.25 Hz. Currents were measured from the tail step at the 5th pulse, and referenced to the holding current. Compounds were then incubated for 6-7 minutes prior to a second measurement of the hERG signal using an identical pulse train. Eight-point concentration curves were generated using serial 3-fold dilutions from the maximum final assay concentration (3 μM).

[3] = Hepatic microsomal stability, rat; assay type: in vitro ADME; details: pooled liver microsomes, read-out: Mean intrinsic clearance
Protocol: as §1, §2

primary macrophages = test: (e) LPS-induced cytokine release in primary macrophages; assay type: cell-based; details: Homo sapiens, Primary macrophage, assay (e)
Protocol: PBMCs from healthy subjects are separated from whole blood using a density gradient (Lymphoprep, Axis-Shield Healthcare). Cells are incubated for 2 hrs and non-adherent cells removed by washing. To differentiate the cells to macrophages the cells are incubated with 5 ng/ml of GM-CSF (Peprotech) for 7 days under normal tissue culture conditions. Compounds are then added to the cells at the desired concentration for a 2 hour pre-treatment before stimulation with 10 ng/ml LPS for 24 hours. […] The IC50 is determined from the dose response curve.

[4] = C57BL/6, colon, read-out: Mean concentration, Colon
[5] = C57BL/6, plasma, read-out: Mean concentration, Plasma
[6] = C57BL/6, po, Mouse, Total colon

microsomal CLint at 0.1 μM [1]: 445 µL/min/mg
IC50 (CYP2C9; CYP2C9, 0 min preincubation): > 15000 nM
IC50 (CYP2C9; CYP2C9, 30 min preincubation): > 15000 nM
inhibition at 0 min, 15 µM (CYP2C9; human, pooled human liver microsomes, pH 7.4, CYP2C9, 0 min preincubation, 15 μM, read-out: 15 μM % Inh): 35%
inhibition at 30 min, 15 µM (CYP2C9; human, pooled human liver microsomes, pH 7.4, CYP2C9, 30 min preincubation, 15 μM, read-out: 15 μM % Inh): 37%
concentration at 1 h [2, 4]: 884 ng/g
concentration at 2 h [2, 4]: 2810 ng/g
concentration at 4 h [2, 4]: 4240 ng/g
concentration at 6 h [2, 4]: 1400 ng/g
concentration at 8 h [2, 4]: 13700 ng/g
concentration at 12 h [2, 4]: 7490 ng/g
concentration at 24 h [2, 4]: 31.6 ng/g
concentration at 1 h [2, 5]: 11.7 ng/mL
concentration at 2 h [2, 5]: 8.5 ng/mL
concentration at 4 h [2, 5]: 5.1 ng/mL
concentration at 6 h [2, 5]: 4.55 ng/mL
concentration at 8 h [2, 5]: 5.1 ng/mL
concentration at 12 h [2, 5]: 0 ng/mL
concentration at 24 h [2, 5]: 0 ng/mL
AUC(0-t) ([2]; C57BL/6, po, Mouse, Plasma): 0.049 µg·h/mL
Cmax ([2]; C57BL/6, po, Mouse, Plasma): 12 ng/mL
Tmax ([2]; C57BL/6, po, Mouse, Plasma): 1 h
AUC(0-inf) [2, 6]: 118 µg·h/mL
AUC(0-t) [2, 6]: 117 µg·h/mL
Cmax [2, 6]: 13700 ng/mL
Tmax [2, 6]: 8 h
microsomal CLint at 0.1 μM [3]: 199 µL/min/mg
IC50 (primary macrophages; read-out: IC50 for inhibition of release of IL-6): 2.8 nM
IC50 (primary macrophages; read-out: IC50 for inhibition of release of IL-8): 2.1 nM
SMILES: C#Cc1cc(Nc2nccc(Oc3ccc(NC(=O)Nc4cc(C(C)(C)C)nn4-c4ccc(C)cc4)c4ccccc34)n2)cc(C(=O)NCCOCCOCCOC)c1 [Example 2, 3-((4-((4-(3-(3-(tert-Butyl)-1-(p-tolyl)-1H-pyrazol-5-yl)ureido)naphthalen-1-yl)oxy)pyrimidin-2-yl)amino)-5-ethynyl-N-(2-(2-(2-methoxyethoxy)ethoxy)ethyl)-benzamide]
IC50 (hERG): > 3000 nM
inhibition at 3 µM (hERG; human, pH 7.3, 3 μM, read-out: inhibition of the hERG channel): 0%
